Measured values from patent US20070004653A1, “Stable lyophilized anthracycline glycosides” (priority 2005, published 2007).
Where two headings read alike, the source gives them in different places.

Columns and labels:
[1] = Purification of Epirubicin HCl: solution warmed to 60° C., dimer and aglycone; format: physicochemical; settings: for dimer content / epirubicin aglycone: cooled to 50-60° C.
Description: Epirubicin hydrochloride (1550 mg) (containing epirubicin aglycone 0.04% and dimer 0.8%) was dissolved in water (100 ml) and the pH was corrected to 3.2-3.8 with hydrochloric acid at room temperature. The solution was then warmed in about ½ hour to 60° C.-65° C. and then maintained at tis temperature for 1 hour and then the solution was cooled to 50-60° C. At the same time, the pH was corrected to 4.5-5.0 with sodium hydroxide (at this point epirubicin aglycone was about 0,10% and dimer content<0,10%). Then the solution was quickly transferred to a cold container.
Epirubicin hydrochloride (1550 mg) (containing epirubicin aglycone 0.04% and dimer 0.8%) was dissolved in water (100 ml) and the pH corrected to 3.2-3.8 with hydrochloric acid at room temperature (by means of 30 microliters of a 1 M aqueous solution). The solution was quickly warmed (in less than ½ hour) to 60° C.-65° C. and then maintained at this temperature for 45 minutes and then the solution was cooled to 50-60° C. At the same time, the pH was corrected to 4.5-5.0 with AMBERLITE® IRA-67 free base (0,18 ml of resin 1,6M) (at this point epirubicin aglycone was about 0,09% and dimer content<0,10%). Then the solution was quickly filtered and then transferred into a cold container.

[2] = Preparation of stable lyophilized anthracycline glycoside hydrochlorides: aglycone and dimer in the lyophilized product; format: physicochemical
Description: (§1) Idarubicin hydrochloride (500 mg) was dissolved in water (50 ml) and acetic acid and ammonium acetate (both 1.5% molar amount with respect to the molar amount of idarubicin hydrochloride) were added. The solution was frozen and lyophilized.
as §1, with “Charcoal was then added (100 g) and the solution was stirred for two hours. After that, the suspension was filtered through 0.4 micron membrane and then the” for “The”
Doxorubicin hydrochloride (500 mg) was dissolved in water (20 ml) and the pH corrected to 3.5 with acetic acid at room temperature. The solution was then warmed to 60° C. for 2 hours and then ammonium acetate (1.5% molar amount with respect to the molar amount of doxorubicin hydrochloride) was added. Then the solution was quickly frozen and lyophilized.
(§2) Epirubicin hydrochloride (1550 mg) was dissolved in water (100 ml) and the pH corrected to 3.2-3.8 with hydrochloric acid at room temperature. The solution was then warmed to 60° C.-65° C. for 1 hours and then the solution was cooled to 50-60° C. At the same time, the pH was corrected to 4.5-5.0 with sodium hydroxide. Then the solution was quickly frozen and lyophilized.
Idarubicin hydrochloride (5.0 g) was dissolved in water (500 ml). Then 58 microlitres of AMBERLITE® IRA-67 (1.6M) acetate (meaning 1.0% molar amount with respect to the molar amount of idarubicin hydrochloride) and 4.5 mg of acetic acid (meaning 0.8% molar amount with respect to the molar amount of idarubicin hydrochloride) were added. The suspension was slurried for two hours, then filtered, frozen and lyophilized.
Doxorubicin hydrochloride (5.0 g) was dissolved in water (200 ml) and the pH corrected to 4.6-4.8 with IN hydrochloric acid at room temperature. Then 80 microlitres of AMBERLITE® IRA-67 (1.6M) acetate (meaning 1.5% molar amount with respect to the molar amount of doxorubicin hydrochloride) was added. The solution was then filtered, frozen and lyophilized.
as §2, with “was” for “was then”, “hour” for “hours”, “AMBERLITE® IRA-67 free base.” for “sodium hydroxide.”, “filtered, frozen,” for “frozen”

[3] = cited from earlier work
[4] = cited from earlier work; remark: listed apart in the source
[5] = Purification of Doxorubicin HCl: solution at pH 3.5 warmed to 60° C., aglycone; format: physicochemical
Description: Doxorubicin hydrochloride (500 mg) was dissolved in water (10 ml) at room temperature. A small amount of 0.1 N hydrochloric acid was added to lower the pH from 5.4 to 3.5. […]

[6] = Stability tests of Doxorubicin HCl solutions at room temperature (aglycone); format: physicochemical
Description: Doxorubicin hydrochloride (500 mg) was dissolved in 0.001 N hydrochloric acid (20 ml) at room temperature. The pH of this solution was 3.25.
Doxorubicin hydrochloride (500 mg) was dissolved in 0.1 N acetic acid (20 ml) at room temperature. The pH of this solution was 2.62. After 1 hour, ammonium acetate (4% molar amount with respect to the molar amount of the doxorubicin hydrochloride) was added to the solution and the solution kept at room temperature. The pH rose from 2.62 to 3.02. The results in table 46 show the stability data of this solution at room temperature.
Doxorubicin hydrochloride (500 mg) was dissolved in 0.05 M formic acid (20 ml) at room temperature. The pH of this solution was 2.52. After 1 hour, ammonium acetate (4% molar amount in respect of the molar amount of doxorubicin hydrochloride) was added and the solution kept at room temperature. The pH rose from 2.52 to 2.71.

[7] = Stability test of stabilized lyophilized Doxorubicin HCl (IRA-67 acetate resin); format: physicochemical
Description: Starting product was doxorubicin hydrochloride, 2.5% w/v in water. The pH of this solution was corrected to 4.6-4.8 with IN HCl. Then 1.5% molar amount of AMBERLITE® IRA-67 (1.6 M) acetate with respect to doxorubicin hydrochloride was added. After 2 hr of slurrying, the solution was filtered through a 0.4 micron membrane then it was, frozen and lyophilized.

[8] = cited from earlier work; remark: listed apart in the source
[9] = Example 36: 1550 mg in water (100 ml), t = 0, pH 3.6, 20° C.
[10] = Example 36: after 1 hour at 60° C.-65° C., pH corrected to 4.5-5.0 with sodium hydroxide
[11] = Example 36: final, pH 4.8 (sodium hydroxide), 10° C.
[12] = Example 37: 1550 mg in water (100 ml), t = 0, pH 3.6, 20° C.
[13] = Example 37: Final, pH 4.7 (AMBERLITE IRA-67 free base), 10° C.
[14] = Example 37: after 45 minutes at 60° C.-65° C., pH corrected to 4.5-5.0 with AMBERLITE IRA-67 free base
[15] = starting Epirubicin hydrochloride (1550 mg) before dissolving
[16] = Example 41: pH 3.2-3.8, 60° C.-65° C. for 1 hour, pH 4.5-5.0 with sodium hydroxide, frozen and lyophilized
[17] = Example 44: pH 3.2-3.8, 60° C.-65° C. for 1 hour, pH 4.5-5.0 with AMBERLITE IRA-67 free base, filtered, frozen, lyophilized

## COc1cccc2c1C(=O)c1c(O)c3c(c(O)c1C2=O)C[C@@](O)(C(=O)CO)C[C@@H]3O[C@H]1CC(N)[C@@H](O)C(C)O1.Cl (stereo in doubt) [Epirubicin HCl, epirubicin hydrochloride]
[1]; [9]
  % aglycone: 0.04%
  % dimer content: 0.80%
[1]; Example 36: 15 min, 60° C.
  % aglycone: 0.06%
  % dimer content: 0.38%
[1]; Example 36: 30 min, 60° C.
  % aglycone: 0.07%
  % dimer content: 0.18%
[1]; Example 36: 45 min, 60° C.
  % aglycone: 0.09%
  % dimer content: 0.11%
[1]; Example 36: 60 min, 60° C.
  % aglycone: 0.11%
  % dimer content: 0.08%
[1]; Example 36: T = 0, 60° C.
  % aglycone: 0.04%
  % dimer content: 0.74%
[1]; [10]
  dimer content: < 0,10%
  epirubicin aglycone: about 0,10%
[1]; [11]
  % aglycone: 0.11%
  % dimer content: 0.08%
[1]; [12]
  % aglycone: 0.04%
  % dimer content: 0.80%
[1]; Example 37: 10 min, 60° C.
  % aglycone: 0.05%
  % dimer content: 0.38%
[1]; Example 37: 20 min, 60° C.
  % aglycone: 0.07%
  % dimer content: 0.18%
[1]; Example 37: 30 min, 60° C.
  % aglycone: 0.09%
  % dimer content: 0.11%
[1]; Example 37: 40 min, 60° C.
  % aglycone: 0.10%
  % dimer content: 0.08%
[1]; [13]
  % aglycone: 0.10%
  % dimer content: 0.08%
[1]; Example 37: T = 0, 60° C.
  % aglycone: 0.05%
  % dimer content: 0.76%
[1]; [14]
  dimer content: < 0,10%
  epirubicin aglycone: about 0,09%
[1]; [15]
  dimer contained: 0.8%
  epirubicin aglycone contained: 0.04%
[2]; [16]
  aglycone contained in lyophilized product: 0.12%
  dimer contained in lyophilized product: 0.1%
[2]; [17]
  aglycone contained in lyophilized product: 0.10%
  dimer contained in lyophilized product: 0.10%
[3]
  pKa in water: 7.7
[4]
  pH in a 0.5% w/v solution in water: 4-5.5

## COc1cccc2c1C(=O)c1c(O)c3c(c(O)c1C2=O)C[C@@](O)(C(=O)CO)C[C@@H]3O[C@H]1C[C@@H](N)[C@H](O)C(C)O1.Cl (stereo partly shown) [Doxorubicin HCl, Doxorubicin hydrochloride]
[5]; 500 mg in water (10 ml), pH lowered from 5.4 to 3.5 with hydrochloric acid, 1 hr, 60° C.
  % aglycone: 0.11%
[5]; 500 mg in water (10 ml), pH lowered from 5.4 to 3.5 with hydrochloric acid, 2 hr, 60° C.
  % aglycone: 0.31%
[5]; pH 3.5 solution after two hours at 60° C., cooled, 1 hr, 20° C.
  % aglycone: 0.21%
[5]; pH 3.5 solution after two hours at 60° C., cooled, 3 hr, 20° C.
  % aglycone: 0.22%
[2]; Example 40: pH 3.5 with acetic acid, 60° C. for 2 hours, ammonium acetate 1.5% molar, frozen and lyophilized
  aglycone contained in lyophilized product: 0.12%
[2]; Example 43: pH 4.6-4.8, AMBERLITE IRA-67 acetate 1.5% molar, filtered, frozen and lyophilized
  aglycone contained in lyophilized product: 0.10%
[6]; 0.05 M formic acid, after addition of NH4OAc (4% molar), pH 2.71, 0.5 hr - 20° C.
  % aglycone: 0.13%
[6]; 0.05 M formic acid, after addition of NH4OAc (4% molar), pH 2.71, 1.0 hr - 20° C.
  % aglycone: 0.11%
[6]; 0.05 M formic acid, after addition of NH4OAc (4% molar), pH 2.71, 1.5 hr - 20° C.
  % aglycone: 0.12%
[6]; 0.05 M formic acid, after addition of NH4OAc (4% molar), pH 2.71, 2.0 hr - 20° C.
  % aglycone: 0.10%
[6]; 0.05 M formic acid, after addition of NH4OAc (4% molar), pH 2.71, 4.0 hr - 20° C.
  % aglycone: 0.14%
[6]; 0.1 N acetic acid, after addition of NH4OAc (4% molar), pH 3.02, 0.5 hr - 20° C.
  % aglycone in doxorubicin HCl: 0.20%
[6]; 0.1 N acetic acid, after addition of NH4OAc (4% molar), pH 3.02, 1.0 hr - 20° C.
  % aglycone in doxorubicin HCl: 0.13%
[6]; 0.1 N acetic acid, after addition of NH4OAc (4% molar), pH 3.02, 1.5 hr - 20° C.
  % aglycone in doxorubicin HCl: 0.12%
[6]; 0.1 N acetic acid, after addition of NH4OAc (4% molar), pH 3.02, 2.0 hr - 20° C.
  % aglycone in doxorubicin HCl: 0.35%
[6]; 0.1 N acetic acid, after addition of NH4OAc (4% molar), pH 3.02, 3.0 hr - 20° C.
  % aglycone in doxorubicin HCl: 0.12%
[6]; 0.1 N acetic acid, after addition of NH4OAc (4% molar), pH 3.02, 6.0 hr - 20° C.
  % aglycone in doxorubicin HCl: 0.16%
[6]; 500 mg in 0.001 N hydrochloric acid (20 ml), pH 3.25, 20° C., 1.0 hr
  % aglycone: 0.24%
[6]; 500 mg in 0.001 N hydrochloric acid (20 ml), pH 3.25, 20° C., 3.0 hr
  % aglycone: 0.21%
[6]; 500 mg in 0.001 N hydrochloric acid (20 ml), pH 3.25, 20° C., 5.0 hr
  % aglycone: 0.26%
[6]; 500 mg in 0.001 N hydrochloric acid (20 ml), pH 3.25, 20° C., 22.0 hr
  % aglycone: 0.25%
[6]; 500 mg in 0.05 M formic acid (20 ml), 1.0 hr - 20° C., pH 2.52, before addition of NH4OAc
  % aglycone: 0.20%
[6]; 500 mg in 0.1 N acetic acid (20 ml), 1.0 hr - 20° C., pH 2.62, before addition of NH4OAc
  % aglycone in doxorubicin HCl: 0.17%
[7]; lyophilized product obtained (IRA-67 acetate treatment)
  % aglycone: 0.09%
[7]; solution after treatment with 1.5% mol of IRA-67 acetate, slurried 2 hr, filtered, loaded into lyophilizer
  % aglycone: 0.07%
[7]; starting solid doxorubicin hydrochloride, 2.5% w/v in water, after correcting pH (4.75), before resin treatment
  % aglycone: 0.07%

## COc1cccc2c1C(=O)c1c(O)c3c(c(O)c1C2=O)C[C@@](O)(C(=O)CO)C[C@@H]3O[C@H]1C[C@@H](N)[C@@H](O)C(C)O1 (stereo partly shown) [Epirubicin]
[8]; in acetone, chloroform, and methylene chloride
  solubility: practically insoluble
[8]; in water, methanol and ethyl alcohol, at a temperature of 50° C.
  solubility: soluble

## COc1cccc2c1C(=O)c1c(O)c3c(c(O)c1C2=O)C[C@@](O)(C(=O)CO)C[C@@H]3O[C@H]1C[C@@H](N)[C@H](O)C(C)O1 (stereo partly shown) [Doxorubicin]
[8]; in acetone, benzene, chloroform and ethyl ether
  solubility: practically insoluble
[8]; in water, methanol
  solubility: soluble
